Patent US20240391954A1, “MC4R AGONIST PEPTIDES” (The Regents of the University of Michigan, priority 2021, published 2024)
Where “and” joins values, the source holds several entries; their conditions need not be identical. Identical values can stand only once. Positions of bridges follow the written chain, without caps; N, C: chain ends. Non-standard residues stand in square brackets, D forms with d. Residues, ends and D or L forms follow the SMILES beside them. Nle = CCCC[C@H](N)C(=O)O

What was measured:
[1] = Plasma protein binding (Centrifree ultrafiltration); assay type: in vitro ADME
Protocol: Solutions of test compound in DMSO were prepared at 1 mM, 100 uM and 10 uM, 5 ul of each solution of test compound was added to 495 uL plasma, and incubated at 25° C. for 5 min. Sample was added to a Centrifree® device, then centrifuged at 2000× g for 20 min to obtain desired filtrate volume. Initial plasma samples and ultrafiltrates were subjected to LC-MS/MS. % Free peptide=(concentration of ultrafiltrates/concentration of plasma)×100%. % Bound=100%−% Free

Mouse plasma stability = assay type: in vitro ADME; conditions: pooled mouse plasma, 37° C.
Protocol: FIG. 3. Results of plasma stability testing for control peptides. Compounds shown were incubated in mouse plasma at 37° C. at 1 μM concentrations. 40 ul aliquots were removed at the times indicated and the reactions stopped with the addition of 160 μL cold acetonitrile containing 200 ng/ml of peptide internal standard (IS). The incubation solution was centrifuged at 3500 rpm for 10 minutes to precipitate protein. LC/MS/MS analysis was used to determine the % peptide remaining.
Pooled mouse plasma was prepared and stored at −80° C, prior to use, 396 μL mouse plasma was incubated at 37° C. for 5 minutes in 1.5 mL microcentrifuge tubes. 4 μL of 100 μM test or control compound/peptide was added to each tube and incubated for 0.5, 15, 30, 60, 120, or 240 minutes. An aliquot of 40 μL of each reaction was stopped by the addition of 4 volume of cold acetonitrile containing 200 ng/mL of […] solution was centrifuged at 3500 rpm for 10 minutes to precipitate protein. The supernatant was used for LC/MS/MS analysis. The natural log peak area ratio (compound peak area/internal standard peak area) was plotted against time and the gradient of the line determined.

[2] = Pharmacokinetics: plasma and brain concentration after IP injection; assay type: in vivo, mouse; conditions: IP 15 mg/kg; for Brain concentration, individual mice 1-3 / Plasma concentration, individual mice 1-3: 15 mg/kg
Protocol: FIG. 5. Pharmacokinetic data for an exemplary peptide relative to setmelanotide. Peptides at 1.5 mg/mL in PBS containing 10% DMSO and 10% PEG-400 were given by IP injection (15 mg/kg) to female CD-1 mice (n=15). At the given time points (0.5 h, 2 h, 4 h, 7 h and 24 h), brain samples were taken out and frozen at −80° C. immediately for later preparation and analysis, and blood samples were collected using heparinized calibrated pipettes. Blood samples were centrifuged at 15000 rpm for 10 min. Subsequently, blood plasma was collected from the upper layer. The plasma was frozen at −80° C. for later analysis. Peptide concentrations at times indicated were determined by LC MS/MS, using non-zero standards in blank Plasma and Brain Samples.
The drug at 1.5 mg/mL in PBS containing 10% DMSO and 10% PEG-400 was given by IP injection (15 mg/kg). At the given time points (0.5 h, 2 h, 4 h, 7 h and 24 h), brain samples were taken out and frozen at −80° C. immediately for later preparation and analysis, and blood samples were collected using heparinized calibrated pipettes. Blood samples were centrifuged at 15000 rpm for 10 min. Subsequently, blood plasma was collected from the upper layer. The plasma was frozen at −80° C. for later analysis.
The analytical curves were constructed using non-zero standards in the blank Plasma and Brain Samples. A blank sample (matrix sample processed without internal standard) was used to exclude contamination. The linear regression analysis of CTX1227/setmelanotide were performed by plotting the peak area ratio (y) against the CTX1227/setmelanotide concentration (x) in ng/mL, respectively.

In the case of `CCCC[C@H](NC(=O)[C@H](CCCNC(=N)N)NC(C)=O)C(=O)N[C@H]1CSSC[C@@H](C(N)=O)NC(=O)[C@H](Cc2c[nH]c3ccccc23)NC(=O)[C@H](CCCNC(=N)N)NC(=O)[C@@H](Cc2ccccc2)NC(=O)[C@H](Cc2c[nH]cn2)NC1=O` [CTX-1227, Arg-Nle-cyclo(Cys-His-D-Phe-Arg-Trp-Cys)] (Ac-R[Nle]CH[dF]RWC-NH2; disulfide 3-8 (inferred)), the fraction unbound at 5 min, 0.1 µM ([1]; 0.1 uM) is reported as 0.5, the fraction unbound at 5 min, 1 µM ([1]; 1.0 uM) is reported as 0.53 and the fraction unbound at 5 min, 10 µM ([1]; 10.0 uM) is reported as 0.46. For the same compound, the half-life at 1 µM (Mouse plasma stability) was 1.05 h, the “Brain concentration, individual mice 1-3” value ([2]; 0.5 h, brain, individual animals) was 99 ng/g and 263.5 ng/g and 182 ng/g and the “Plasma concentration, individual mice 1-3” value (“Plasma concentration” for short) ([2]; 0.5 h, plasma, individual animals) was 20900 ng/mL and 25000 ng/mL and 68700 ng/mL. The “Brain concentration, individual mice 1-3” value ([2]; 2 h, brain, individual animals) was 287.5 ng/g and 176.5 ng/g and 327.5 ng/g, the “Plasma concentration” value ([2]; 2 h, plasma, individual animals) was 50200 ng/mL and 17300 ng/mL and 20700 ng/mL and the “Brain concentration, individual mice 1-3” value ([2]; 4 h, brain, individual animals) was 158 ng/g and 142.5 ng/g and 210 ng/g. The “Plasma concentration” value ([2]; 4 h, plasma, individual animals) was 19400 ng/mL and 23300 ng/mL and 33400 ng/mL, the “Brain concentration, individual mice 1-3” value ([2]; 7 h, brain, individual animals) was 223 ng/g and 224.5 ng/g and 119 ng/g and the “Plasma concentration” value ([2]; 7 h, plasma, individual animals) was 9360 ng/mL and 9210 ng/mL and 2880 ng/mL. The “Brain concentration, individual mice 1-3” value ([2]; 24 h, brain, individual animals) was “BlQ and BLQ (2×)”, the “Plasma concentration” value ([2]; 24 h, plasma, individual animals) was “BLQ” and the tissue level at time at 0.5 h ([2]; female, CD-1, mouse, mice, 0.5 h, brain, mean of 3) was 182 ng/g. For the same compound, the level at 0.5 h ([2]; female, CD-1, mouse, mice, 0.5 h, plasma, mean of 3) was 38200 ng/mL, the tissue level at time at 2 h ([2]; female, CD-1, mouse, mice, 2 h, brain, mean of 3) was 264 ng/g and the level at 2 h ([2]; female, CD-1, mouse, mice, 2 h, plasma, mean of 3) was 29400 ng/mL. The tissue level at time at 4 h ([2]; female, CD-1, mouse, mice, 4 h, brain, mean of 3) was 170 ng/g, the level at 4 h ([2]; female, CD-1, mouse, mice, 4 h, plasma, mean of 3) was 25400 ng/mL and the tissue level at time at 7 h ([2]; female, CD-1, mouse, mice, 7 h, brain, mean of 3) was 189 ng/g. For the same compound, the level at 7 h ([2]; female, CD-1, mouse, mice, 7 h, plasma, mean of 3) was 7150 ng/mL and the level at 24 h ([2]; female, CD-1, mouse, mice, 24 h, plasma, individual animals, read-out: Plasma concentration, individual mice 1-3) was 15 ng/mL.
